Laboratory results published in US20250339443A1, “METHOD FOR TREATING OR PREVENTING CALCIUM RELEASE-ACTIVATED CALCIUM CHANNEL OR DISCOIDIN DOMAIN RECEPTOR 2 RELATED DISORDERS OR CONDITIONS” (LumiSTAR Biotechnology, Inc., priority 2023, published 2025).

Columns and labels:
[1] = biological target: CRAC channel (Homo sapiens, UniProt Q96D31); experiment: SOCE in T cells; format: cell-based; set-up: endogenous in cells; host or cells: HEK293T; details: 10 μM
Procedure: The effects of BTP2, WRG-28, Av, and CM-4620 on SOCE were evaluated in T cells (FIG. 4A) and macrophages (FIG. 4E). Cells were cultured on glass-bottom 96-well plates and pretreated with various compounds (10 μM) while being loaded with Fura 2-AM. Subsequently, the cytosolic calcium signal waves were recorded, and the second peak of each wave and rate of entry were assessed. Each bar represents the mean value derived from, 43 to 111 cells for T cells (FIG. 4A), and 52 to 91 cells for macrophages (FIG. 4E). Cytokine induction in T cells and macrophages was conducted as described in the methods section. The levels of cytokines, including IL-2, TNF-α, and IL-6 in the culture medium were assessed using ELISA kits for T cells (FIG. 4B, FIG. 4C, and FIG. 4D) and macrophages (FIG. 4F, FIG. 4G, and FIG. 4H), respectively. Each bar represents the mean±SEM. In all the graphs, *, **, and *** denote p-values of <0.05, 0.01, and 0.001, respectively. […]
Cells cultured on a glass-bottom 96 well plate for 48 hours were treated with different compounds (10 μM) and Fura 2-AM (1 μM) simultaneously in a solution containing 145 mM NaCl, 2.8 mM KCl, 2 mM CaCl2, 2 mM MgCl2, 10 mM D-glucose, 10 mM HEPES, pH 7.4 for 40 minutes in the dark. […] All the images were analyzed by using IGOR Pro software. […]

[2] = tested on: BLM-induced pulmonary fibrosis; experiment: Bleomycin-induced lung fibrosis mouse model; format: in vivo; details: 14 days, Nintedanib 60 mg/kg/day, WRG-28 5 mg/kg/day, Av 5 mg/kg/day
Source text: A Bleomycin (BLM)-induced lung fibrosis mouse model was used, and the timelines of operation and drug delivery are depicted in FIG. 11A. […] The hydroxyproline content, serving as a marker of collagen deposition, was extracted from the right lobe and analyzed; the results are shown in FIG. 11C. FIG. 11D depicts histological analysis derived from the left lobe, quantifying the fibrotic area through staining with Masson's Trichrome and Picrosirius red, respectively.
8-to-10-week-old male WT (C57BL/6) mice received intratracheal instillation of bleomycin (bleocin; Nippon Kayaku) at the dose of 3 mg/kg diluted in PBS or PBS only (sham). To study fibrosis, lung samples were collected on day 21 for further analysis.
Lung function was assessed using the flexi Vent system (Scireq, Montreal, QC, Canada). Mice were tracheostomized and ventilated at a rate of 150 breaths/min, tidal volume of 10 ml/kg, and a positive end-expiratory pressure (PEEP) of 2-3 cmH2O. A deep inflation perturbation was used to estimate the inspiratory capacity (IC). Pressure-Volume loops were generated by constant increasing pressure, followed by regular decreasing pressure. Other lung function parameters like resistance, compliance, and elastance were measured by using SnapShot-150.
Levels of hydroxyproline in lung tissues were measured using the Hydroxyproline Colorimetric Assay kit (BioVision, Milpitas, CA, USA). Briefly, 10 mg of frozen right middle lobes homogenized in 100 μL of hydrochloric acid (HCl, 12 N), and hydrolyzed at 120° C. for 3 h. Then, 10 μL of individual samples were used to quantify the absorbance at 560 nm. Hydroxyproline content was presented in μg per lobe.
Mouse left lungs were fixed overnight in 4% paraformaldehyde (PFA), embedded in paraffin, and sectioned in 5 μm thickness for picrosirius red (Abcam, Cambridge, UK) and Masson's trichrome staining (Sigma Aldrich, MO, USA). Measurement of fibrotic area was quantified using ImageJ software (NIH, http://rsbweb.nih.gov/ij/).
The efficacy of WRG-28 and Av in treating pulmonary fibrosis was examined in vivo using a BLM-induced pulmonary fibrosis mouse model for evaluation. 50 μL of Bleomycin (BLM, 3 mg/kg) or PBS were introduced by intratracheal instillation on day 0 to induce fibrosis or serve as the control group, respectively. This was followed by the administration of various compounds for 14 days (Nintedanib: 60 mg/kg/day, WRG-28:5 mg/kg/day, Av: 5 mg/kg/day). Lung function evaluation was conducted on day 21 (FIG. 11A). Nintedanib, an FDA-approved drug for idiopathic pulmonary fibrosis (IPF) treatment, was used as the positive control. The results of the lung function evaluation are depicted in FIG. 11B. […] The degree of these changes can be reversed through treatment with Nintedanib, WRG-28 or Av. […] Histological analysis was conducted through staining techniques to quantify the fibrotic area.

CRAC channel, sequence (Q96D31 whole entry): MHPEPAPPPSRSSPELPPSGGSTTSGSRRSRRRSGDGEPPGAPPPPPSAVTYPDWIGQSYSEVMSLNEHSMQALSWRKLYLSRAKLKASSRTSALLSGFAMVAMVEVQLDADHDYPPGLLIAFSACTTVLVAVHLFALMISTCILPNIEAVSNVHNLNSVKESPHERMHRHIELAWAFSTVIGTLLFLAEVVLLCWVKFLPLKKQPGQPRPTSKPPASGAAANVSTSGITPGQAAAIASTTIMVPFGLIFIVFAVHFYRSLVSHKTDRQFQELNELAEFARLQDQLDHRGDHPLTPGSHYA

- SOCE in T cells [1]: higher efficacy compared to Av
SMILES: CCNS(=O)(=O)c1ccc(COc2ccc3nc4ccc(=O)cc-4oc3c2)cc1 [WRG-28]
- BLM-induced changes in lung function (capacity, compliance, resistance, elastance) ([2]; day 21): reversed
- fibrotic area (Masson's trichrome and Picrosirius Red staining) ([2]; left lobe): effectively reduces
- hydroxyproline content (degree of fibrosis) ([2]; right lobe): inhibits the progression of fibrosis
